Measured values reported in patent publication US12642797B2, “Coated granule, solid dispersion, and preparation containing vortioxetine hydrobromide for oral taste masking” (Seasons Biotechnology (Taizhou) Co., Ltd., priority 2019, dated 2026).
Counter-ions that a name gives are not always drawn.

Tests used:
[1] = tested on: oral cavity and tongue; assay: Taste and irritation test by subjects (self-made sample vs reference sample); type: in vivo, human; details: for Instantaneous irritation / Delayed irritation: hemihydrobromide
Method: In the examples, the taste masking effects of test samples were evaluated by the subject's perception of the bitterness and irritation of the oral cavity and tongue. The Taste and Irritation Classification Tested by the Subjects: [table]

[2] = Solubility in sodium acetate medium pH 6.8 simulating the oral environment (USP method); type: physicochemical; details: sodium acetate medium pH 6.8, USP method; hemihydrobromide
[3] = tested on: tongue; assay: Comparative Example 1: comparison of taste of different vortioxetine salts (10 subjects, 30 attempts); details: converted to the same amount of C18H22N2S
Method: The vortioxetine lactate salt, vortioxetine hydrobromide and vortioxetine hemihydrobromide equivalent to 5 mg of vortioxetine respectively over 100 mesh powders were put directly in front of the upper part of the tongue for one minute. There were 10 subjects in each salt-type group, and each subject randomly tried each salt-type 3 times. After trying one salt-type taste, rinsed your mouth, and try another salt-type after there was no irritation. After trying the taste, record the bitterness level and tongue irritation, spit it out a few seconds later, rinse your mouth, record the time for the irritation to subside, eat 1-1.5 hours later, and record the irritation again.

Cc1ccc(Sc2ccccc2N2CCNCC2)c(C)c1 [vortioxetine hemihydrobromide]
Instantaneous irritation ([1]; Subject 4, 0-1 minute, powder equivalent to 20 mg of vortioxetine tasted, listed as Reference sample (2a)): ++ (+ + Irritating, tolerable) | Instantaneous irritation ([1]; Subject 4, 0-1 minute, powder equivalent to 20 mg of vortioxetine tasted, listed as Reference sample (2c)): ++ (+ + Irritating, tolerable) | Instantaneous irritation ([1]; Subject 4, 0-1 minute, powder equivalent to 20 mg of vortioxetine tasted, listed as Reference sample (3a)): +++ (+ + + Strong irritation, intolerable) | Instantaneous irritation ([1]; Subject 4, 0-1 minute, powder equivalent to 20 mg of vortioxetine tasted, listed as Reference sample (3b)): +++ (+ + + Strong irritation, intolerable) | Instantaneous irritation ([1]; Subject 4, 0-1 minute, powder equivalent to 20 mg of vortioxetine tasted, listed as Reference sample (3c)): +++ (+ + + Strong irritation, intolerable) | Instantaneous irritation ([1]; Subject 4, 0-1 minute, powder equivalent to 20 mg of vortioxetine tasted, listed as Reference sample (4a)): +++ (+ + + Strong irritation, intolerable) | Instantaneous irritation ([1]; Subject 4, 0-1 minute, powder equivalent to 20 mg of vortioxetine tasted, listed as Reference sample (1d)): ++ (+ + Irritating, tolerable) | Instantaneous irritation ([1]; Subject 4, 0-1 minute, powder equivalent to 20 mg of vortioxetine tasted, listed as Reference sample (2d)): ++ (+ + Irritating, tolerable) | Delayed irritation ([1]; Subject 4, powder equivalent to 20 mg of vortioxetine tasted, listed as Reference sample (1a)): 15 to 30 min | Delayed irritation ([1]; Subject 4, powder equivalent to 20 mg of vortioxetine tasted, listed as Reference sample (1e)): 15 to 30 min | Delayed irritation ([1]; Subject 4, powder equivalent to 20 mg of vortioxetine tasted, listed as Reference sample (2a)): >30 min | Delayed irritation ([1]; Subject 4, powder equivalent to 20 mg of vortioxetine tasted, listed as Reference sample (2c)): >30 min | Delayed irritation ([1]; Subject 4, powder equivalent to 20 mg of vortioxetine tasted, listed as Reference sample (3a)): 1 to 15 min | Delayed irritation ([1]; Subject 4, powder equivalent to 20 mg of vortioxetine tasted, listed as Reference sample (3b)): 1 to 15 min | Delayed irritation ([1]; Subject 4, powder equivalent to 20 mg of vortioxetine tasted, listed as Reference sample (3c)): >30 min | Delayed irritation ([1]; Subject 4, powder equivalent to 20 mg of vortioxetine tasted, listed as Reference sample (4a)): >30 min | Delayed irritation ([1]; Subject 4, powder equivalent to 20 mg of vortioxetine tasted, listed as Reference sample (5)): >30 min | Delayed irritation ([1]; Subject 4, powder equivalent to 20 mg of vortioxetine tasted, listed as Reference sample (6)): 15 to 30 min | Delayed irritation ([1]; Subject 4, powder equivalent to 20 mg of vortioxetine tasted, listed as Reference sample (7a)): >30 min | Delayed irritation ([1]; Subject 4, powder equivalent to 20 mg of vortioxetine tasted, listed as Reference sample (8a)): >30 min | Delayed irritation ([1]; Subject 4, powder equivalent to 20 mg of vortioxetine tasted, listed as Reference sample (8b)): >30 min | Delayed irritation ([1]; Subject 4, powder equivalent to 20 mg of vortioxetine tasted, listed as Reference sample (1d)): 15 to 30 min | Delayed irritation ([1]; Subject 4, powder equivalent to 20 mg of vortioxetine tasted, listed as Reference sample (2d)): >30 min | Instantaneous irritation ([1]; Subject 5, 0-1 minute, powder equivalent to 20 mg of vortioxetine tasted, listed as Reference sample (1a)): +++ (+ + + Strong irritation, intolerable) | Instantaneous irritation ([1]; Subject 5, 0-1 minute, powder equivalent to 20 mg of vortioxetine tasted, listed as Reference sample (1e)): +++ (+ + + Strong irritation, intolerable) | Instantaneous irritation ([1]; Subject 5, 0-1 minute, powder equivalent to 20 mg of vortioxetine tasted, listed as Reference sample (2a)): +++ (+ + + Strong irritation, intolerable) | Instantaneous irritation ([1]; Subject 5, 0-1 minute, powder equivalent to 20 mg of vortioxetine tasted, listed as Reference sample (2c)): +++ (+ + + Strong irritation, intolerable) | Instantaneous irritation ([1]; Subject 5, 0-1 minute, powder equivalent to 20 mg of vortioxetine tasted, listed as Reference sample (3a)): +++ (+ + + Strong irritation, intolerable) | Instantaneous irritation ([1]; Subject 5, 0-1 minute, powder equivalent to 20 mg of vortioxetine tasted, listed as Reference sample (3b)): +++ (+ + + Strong irritation, intolerable) | Instantaneous irritation ([1]; Subject 5, 0-1 minute, powder equivalent to 20 mg of vortioxetine tasted, listed as Reference sample (3c)): ++ (+ + Irritating, tolerable) | Instantaneous irritation ([1]; Subject 5, 0-1 minute, powder equivalent to 20 mg of vortioxetine tasted, listed as Reference sample (4a)): ++ (+ + Irritating, tolerable) | Instantaneous irritation ([1]; Subject 5, 0-1 minute, powder equivalent to 20 mg of vortioxetine tasted, listed as Reference sample (1d)): +++ (+ + + Strong irritation, intolerable) | Instantaneous irritation ([1]; Subject 5, 0-1 minute, powder equivalent to 20 mg of vortioxetine tasted, listed as Reference sample (2d)): ++ (+ + Irritating, tolerable) | Delayed irritation ([1]; Subject 5, powder equivalent to 20 mg of vortioxetine tasted, listed as Reference sample (1a)): >30 min | Delayed irritation ([1]; Subject 5, powder equivalent to 20 mg of vortioxetine tasted, listed as Reference sample (1e)): >30 min | Delayed irritation ([1]; Subject 5, powder equivalent to 20 mg of vortioxetine tasted, listed as Reference sample (2a)): 15 to 30 min | Delayed irritation ([1]; Subject 5, powder equivalent to 20 mg of vortioxetine tasted, listed as Reference sample (2c)): 15 to 30 min | Delayed irritation ([1]; Subject 5, powder equivalent to 20 mg of vortioxetine tasted, listed as Reference sample (3a)): 1 to 15 min | Delayed irritation ([1]; Subject 5, powder equivalent to 20 mg of vortioxetine tasted, listed as Reference sample (3b)): 1 to 15 min | Delayed irritation ([1]; Subject 5, powder equivalent to 20 mg of vortioxetine tasted, listed as Reference sample (3c)): >30 min | Delayed irritation ([1]; Subject 5, powder equivalent to 20 mg of vortioxetine tasted, listed as Reference sample (4a)): 15 to 30 min | Delayed irritation ([1]; Subject 5, powder equivalent to 20 mg of vortioxetine tasted, listed as Reference sample (5)): 15 to 30 min | Delayed irritation ([1]; Subject 5, powder equivalent to 20 mg of vortioxetine tasted, listed as Reference sample (6)): >30 min | Delayed irritation ([1]; Subject 5, powder equivalent to 20 mg of vortioxetine tasted, listed as Reference sample (7a)): >30 min | Delayed irritation ([1]; Subject 5, powder equivalent to 20 mg of vortioxetine tasted, listed as Reference sample (8a)): 15 to 30 min | Delayed irritation ([1]; Subject 5, powder equivalent to 20 mg of vortioxetine tasted, listed as Reference sample (8b)): 15 to 30 min | Delayed irritation ([1]; Subject 5, powder equivalent to 20 mg of vortioxetine tasted, listed as Reference sample (1d)): >30 min | Delayed irritation ([1]; Subject 5, powder equivalent to 20 mg of vortioxetine tasted, listed as Reference sample (2d)): 15 to 30 min | Delayed irritation, time to disappear ([1]; average of 5 subjects, powder equivalent to 20 mg of vortioxetine): more than 30 minutes | Instantaneous irritation ([1]; average of 5 subjects, powder equivalent to 20 mg of vortioxetine, listed as Reference sample (1a)): +++ (+ + + Strong irritation, intolerable) | Instantaneous irritation ([1]; average of 5 subjects, powder equivalent to 20 mg of vortioxetine, listed as Reference sample (1e)): +++ (+ + + Strong irritation, intolerable) | Instantaneous irritation ([1]; average of 5 subjects, powder equivalent to 20 mg of vortioxetine, listed as Reference sample (2a)): +++ (+ + + Strong irritation, intolerable) | Instantaneous irritation ([1]; average of 5 subjects, powder equivalent to 20 mg of vortioxetine, listed as Reference sample (2c)): ++ (+ + Irritating, tolerable) | Instantaneous irritation ([1]; average of 5 subjects, powder equivalent to 20 mg of vortioxetine, listed as Reference sample (3a)): ++ (+ + Irritating, tolerable) | Instantaneous irritation ([1]; average of 5 subjects, powder equivalent to 20 mg of vortioxetine, listed as Reference sample (3b)): ++ (+ + Irritating, tolerable) | Instantaneous irritation ([1]; average of 5 subjects, powder equivalent to 20 mg of vortioxetine, listed as Reference sample (3c)): ++ (+ + Irritating, tolerable) | Instantaneous irritation ([1]; average of 5 subjects, powder equivalent to 20 mg of vortioxetine, listed as Reference sample (4a)): +++ (+ + + Strong irritation, intolerable) | Instantaneous irritation ([1]; average of 5 subjects, powder equivalent to 20 mg of vortioxetine, listed as Reference sample (5)): ++ (+ + Irritating, tolerable) | Instantaneous irritation ([1]; average of 5 subjects, powder equivalent to 20 mg of vortioxetine, listed as Reference sample (6)): ++ (+ + Irritating, tolerable) | Instantaneous irritation ([1]; average of 5 subjects, powder equivalent to 20 mg of vortioxetine, listed as Reference sample (7a)): +++ (+ + + Strong irritation, intolerable) | Instantaneous irritation ([1]; average of 5 subjects, powder equivalent to 20 mg of vortioxetine, listed as Reference sample (8a)): ++ (+ + Irritating, tolerable) | Instantaneous irritation ([1]; average of 5 subjects, powder equivalent to 20 mg of vortioxetine, listed as Reference sample (8b)): ++ (+ + Irritating, tolerable) | Instantaneous irritation ([1]; average of 5 subjects, powder equivalent to 20 mg of vortioxetine, listed as Reference sample (9a)): +++ (+ + + Strong irritation, intolerable) | Instantaneous irritation ([1]; average of 5 subjects, powder equivalent to 20 mg of vortioxetine, listed as Reference sample (9c)): +++ (+ + + Strong irritation, intolerable) | Instantaneous irritation ([1]; average of 5 subjects, powder equivalent to 20 mg of vortioxetine, listed as Reference sample (9e)): ++ (+ + Irritating, tolerable) | Instantaneous irritation ([1]; average of 5 subjects, powder equivalent to 20 mg of vortioxetine, listed as Reference sample (11a)): ++ (+ + Irritating, tolerable) | Instantaneous irritation ([1]; average of 5 subjects, powder equivalent to 20 mg of vortioxetine, listed as Reference sample (12a)): +++ (+ + + Strong irritation, intolerable) | Instantaneous irritation ([1]; average of 5 subjects, powder equivalent to 20 mg of vortioxetine, listed as Reference sample (12b)): +++ (+ + + Strong irritation, intolerable) | Instantaneous irritation ([1]; average of 5 subjects, powder equivalent to 20 mg of vortioxetine, listed as Reference sample (13a)): ++ (+ + Irritating, tolerable) | Instantaneous irritation ([1]; average of 5 subjects, powder equivalent to 20 mg of vortioxetine, listed as Reference sample (13b)): ++ (+ + Irritating, tolerable) | Instantaneous irritation ([1]; average of 5 subjects, powder equivalent to 20 mg of vortioxetine, listed as Reference sample (14a)): ++ (+ + Irritating, tolerable) | Instantaneous irritation ([1]; average of 5 subjects, powder equivalent to 20 mg of vortioxetine, listed as Reference sample (16)): ++ (+ + Irritating, tolerable) | Instantaneous irritation ([1]; average of 5 subjects, powder equivalent to 20 mg of vortioxetine, listed as Reference sample (17)): ++ (+ + Irritating, tolerable) | Instantaneous irritation ([1]; average of 5 subjects, powder equivalent to 20 mg of vortioxetine, listed as Reference sample (1d)): +++ (+ + + Strong irritation, intolerable) | Instantaneous irritation ([1]; average of 5 subjects, powder equivalent to 20 mg of vortioxetine, listed as Reference sample (2d)): ++ (+ + Irritating, tolerable) | Instantaneous irritation ([1]; average of 5 subjects, powder equivalent to 20 mg of vortioxetine, listed as Reference sample (9d)): ++ (+ + Irritating, tolerable) | solubility [2]: 140 µg/mL | Irritation compared with vortioxetine hydrobromide, in words [3]: significantly less irritating
